Results as given in US20110003844A1, “REGULATION OF CARDIAC CONTRACTILITY AND HEART FAILURE PROPENSITY” (Children's Hospital Medical Center, priority 2003, published 2011).
“Also recorded” adds a separate entry of the source. Like-named read-outs stand apart in the source and are kept apart here.

Legend:
[1] = tested on: adult wildtype mouse hearts; experiment: ex vivo working heart preparation, Ro-32-0432 infusion
Description: Mice from all genotypes or treatment groups were anesthetized with isoflurane, and echocardiography was performed using a Hewlett Packard 5500 instrument with a 15-MHZ microprobe. Echocardiographic measurements were taken on M-mode in triplicate from four separate mice per group. The isolated ejecting mouse heart preparation used in the present study has been described in detail previously (Gulick et al. (1997) Circ. Res. 80:655-664), as was the close-chested working heart model employed here (Lorenz et al. (1997) Am. J. Physiol. 272:H1137-H1146).
The relatively selective PKCα/β inhibitory compound Ro-32-0432 [2-{8-[(Dimethylamino)methyl]-6,7,8,9-tetrahydropyrido[1,2-a]indol-3-yl}-3-(1-methylindol-3-yl)maleimide, HCl Salt] [3-{8-[(Dimethylamino)methyl]-6,7,8,9-tetrahydropyrido[1,2-a]indol-10-yl}-4-(1-methylindol-3-yl)-1H -pyrrole-2,5-dione, HCl Salt] was used as a means of directly examining the effects of acute PKCα inhibition on cardiac function and contractility using an ex vivo working heart preparation. The working heart preparation separates the inherent pump function of the heart from potential alterations in total vascular resistance as might occur if the drug were infused in vivo.
Working adult wildtype mouse hearts were infused with vehicle control (10% DMSO) or Ro-32-0432 in 10% DMSO at concentrations ranging between 4×10^−10 through 4'10^−6M. Four animals were analyzed in the Ro-32-0432 group and compared with three animals in the vehicle control group. […] The average heart rate of the vehicle and drug treated groups was 351+/=3 and 292+/−6 beats per minute, respectively. […] The approximate 20% change in acute contractile performance in the Ro-32-0432 treated group is similar to the increase in cardiac function observed in PKCα null mice.

[2] = tested on: normal Sprague-Dawley and Lewis rats; experiment: in vivo cardiac contractility and hemodynamics in anesthetized normal rats; design: species or system rat
Description: Selected PKCα inhibitors are evaluated in both naive rats and rats with myocardial infarction (MI) for effects on cardiac contractility and hemodynamics. The effects of inhibitors on cardiac contractility and hemodynamics are evaluated in naïve and MI rats as follows. The animals are anesthetized with isoflurane. A femoral artery is isolated and cannulated for the measurement of systemic blood pressure. A jugular vein is isolated and cannulated for the intravenous infusion of inhibitor. The right carotid artery is isolated and a Millar conductance catheter is inserted to the left ventricle (LV) of the heart. The LV systolic pressure, end-diastolic pressure, +maximum dP/dt, −minimum dP/dt, and heart rate are derived from the LV pressure waveform. Mean arterial blood pressure is derived from the systemic blood pressure waveform. Data are recorded continuously and derived using computerized data acquisition software (Notocord or Powerlab). After a period of stabilization, PKCα inhibitors are infused at the following infusion doses in naïve rats: 0.1, 0.3, 1.0, 3.0, 10, 30, 100, 300 and 1000 nmol/kg/min. The infusion of each dose is allowed to run for at least five minutes. In MI rats, the infusion doses are as follows: 10, 30, 100, 300, and 1000 nmol/kg/min for at least five minutes. Equivalent infusion volumes are administered to separate, vehicle-control naïve and MI animals. At the end of the test infusions, 5.0 μg/kg/min of dobutamine is infused.

PKC isoforms = conditions: cited from earlier work
wildtype mouse hearts = experiment: ex vivo working heart preparation, acute PMA infusion, wildtype hearts
Description: (§1) Hearts were isolated from four wild-type and four PKCα −/− (PKCα null) transgenic mice. The isolated hearts were infused with PMA at 9 different concentrations ranging from 8×10^−11 through 8×10^−7 M. Acute PMA infusion of each concentration occurred for a 7 minute period. The hearts were measured for maximal and minimal dP/dt in systole and diastole respectively.

PKCα−/− hearts = experiment: ex vivo working heart preparation, acute PMA infusion, PKCα null hearts; design: species or system mouse
Description: as §1

PKCα-GFP = experiment: translocation of PKCα-GFP indicator polypeptide, confocal microscopy; type: cell-based; conditions: neonatal rat cardiomyocytes, PMA 60 minutes
Description: A PKCα indicator was prepared by operably linking a nucleotide sequence encoding PKCα to a nucleotide sequence encoding green fluorescence protein (GFP). An expression cassette comprising the PKCα-GFP nucleotide sequence was prepared. Adenovirus comprising the PKCα-GFP expression cassette was prepared.
Neonatal rat cardiomyocytes were cultured in plastic dishes and incubated until the appropriate density was reached. The cardiomyocytes were infected with an adenovirus encoding PKCα-GFP. The cultures were incubated for 24 hours. After 24 hours the cells were incubated with either DMSO alone (the vehicle treatment) or DMSO and PMA for 60 minutes. The cells were fixed and examined by confocal microscopy.

PKCα = target: T1, PKCα (Rattus norvegicus, UniProt P05696); experiment: confocal immunohistochemistry of PKCα localization in adult cardiomyocytes; type: cell-based; conditions: adult rat cardiomyocytes in culture, acute PMA stimulation
T1 construct: confocal micrographs of PKCα protein localization in adult rat cardiac myocytes at baseline (PKCα) or after PMA; endogenous in cells; host or cells: adult rat cardiomyocytes in culture

[3] = tested on: isolated cardiac myocytes and whole guinea-pig hearts; conditions: cited from earlier work
[4] = tested on: isolated chicken ventricular myocytes; conditions: 1 μM drug; cited from earlier work
[5] = tested on: isolated ventricular myocytes from adult rats; conditions: 10^−7 M, 1 Hz, 1 mM calcium; cited from earlier work
MI rats = experiment: in vivo cardiac contractility in anesthetized rats with myocardial infarction; design: species or system rat
Description: Selected PKCα inhibitors are evaluated in both naive rats and rats with myocardial infarction (MI) for effects on cardiac contractility and hemodynamics.
Male, Sprague-Dawley or Lewis rats weighing between 225-500 gm are anesthetized with isoflurane and an MI is induced as follows. A thoracotomy at the fourth or fifth intercostal space is done, the heart is exposed and the pericardium is opened. A 5-0 suture is placed around the left descending coronary artery 2-4 mm from its origin and permanently tied. The ribs, muscle and skin are separately closed and the animal is allowed to recover. Twenty to twenty-three weeks after surgery the animals are used to evaluate the effects of PKCα inhibitors on cardiac contractility and hemodynamics.
The effects of inhibitors on cardiac contractility and hemodynamics are evaluated in naïve and MI rats as follows. The animals are anesthetized with isoflurane. A femoral artery is isolated and cannulated for the measurement of systemic blood pressure. A jugular vein is isolated and cannulated for the intravenous infusion of inhibitor. The right carotid artery is isolated and a Millar conductance catheter is inserted to the left ventricle (LV) of the heart. […] Data are recorded continuously and derived using computerized data acquisition software (Notocord or Powerlab). […]

[6] = 1000 nmol/kg/min i.v. infusion, 5 min, n=3

## 2-{8-[(Dimethylamino)methyl]-6,7,8,9-tetrahydropyrido[1,2-a]indol-3-yl}-3-(1-methylindol-3-yl)maleimide, HCl Salt [Ro-32-0432]
[1]; Ro-32-0432 treated group, similar to PKCα null mice
  change in acute contractile performance: ~20%
[1]; during infusion, 295+/−26 before treatment
  average heart rate of drug treated group: 292+/−6 beats per minute
[1]; infused at 4×10^−10 to 4×10^−6 M, 7 min per concentration, values summated, average dosage approx 1×10^−8 M, P<0.05
  increase in acute contractile function, measured as maximum dP/dt: 20%
[1]; infused at 4×10^−10 to 4×10^−6 M, values summated, average dosage approx 1×10^−8 M, P<0.05
  increase in left ventricular pressure developed: 20%
[1]; infusion vs baseline, p<0.05
  acute cardiac contractility upon infusion (FIG. 38): statistically significant increase

## CN(C)C[C@@H]1CCn2cc(c3ccccc32)C2=C(C(=O)NC2=O)c2cn(c3ccccc23)CCO1 [LY333531]
[2]; [6]
  maximum dP/dt increase compared to baseline: 28%
  minimum dP/dt increase compared to baseline: 17%
[2]; 1000 nmol/kg/min, baseline 315±17, not statistically significant
  heart rate: 294±8 beats per minute

## CNC[C@@H]1CCn2cc(c3ccccc32)C2=C(C(=O)NC2=O)c2cn(c3ccccc23)CCO1 [LY338522]
PKC isoforms
  inhibition of the PKC isoforms: effective in inhibiting the PKC isoforms

## CCCCCCCCCCCCCC(=O)O[C@@H]1[C@@H](C)[C@@]2(O)[C@@H](C=C(CO)C[C@]3(O)C(=O)C(C)=C[C@@H]23)[C@@H]2C(C)(C)[C@]12OC(C)=O [PMA, phorbol myristate acetate]
Wildtype mouse hearts; 8×10^−11 through 8×10^−9 M
  contractile performance (Maximum dP/dt or Minimum dP/dt): essentially no effect
Wildtype mouse hearts; concentrations higher than 8×10^−9 M
  functional performance: marked decrease in functional performance
PKCα−/− hearts; highest concentrations of PMA
  functional performance: only a mild depression in functional performance
PKCα−/− hearts; low doses of PMA
  inotropic effect: immediate positive inotropic effect
PKCα-GFP
  PKCα-GFP localization: highly localized and punctate staining pattern; also recorded: robust redistribution of PKCα-GFP
PKCα
  PKCα protein localization: rapid translocation
[3]; 10^−12 M PMA
  inotropic response: significant positive inotropic response
[3]; concentrations higher than 10^−10 M PMA
  inotropic response: negative inotropic response
[4]
  maximum decrease in the amplitude of cell shortening: 54%
[5]
  twitch amplitude, of control: approximately 60%

## [H]/N=C(/N)SCCCn1cc(C2=C(c3cn(C)c4ccccc34)C(=O)NC2=O)c2ccccc21 [Ro-31-8220]
MI rats; dobutamine 5.0 μg/kg/min for 5 minutes
  inotropic benefit compared with dobutamine: greater than that seen with dobutamine
MI rats; dose dependent i.v. infusion 10-1000 nmol/kg/min, significance (P<0.05) at 300 nmol/kg/min, n=4
  percent increase in maximum dP/dt from baseline: 21%
